Test results reported in patent US9938261B2, “Heterocyclic compounds and methods of use thereof” (AMBIT BIOSCIENCES CORPORATION, priority 2011, dated 2018).

How the values were obtained:
[1] = biological target: T1, CSF1R (Homo sapiens, UniProt P07333); assay: Competition binding assay, CSF1R Kd; parameters: made in house
Procedure, shortened: (§1)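 Kinases as T7-phage fusions or HEK-293-expressed DNA-tagged constructs competed against immobilized biotinylated ligand on streptavidin beads, 1 h at room temperature in binding buffer. Bound kinase eluted and quantified by qPCR; Kd from eleven-point threefold dilution series.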

[2] = biological target: T1, CSF1R; assay: HEK293 CSF1R phosphorylation MSD assay; type: cell-based; parameters: expressed in transfected cells; host or cells: HEK293; conditions: 2 h compound, human M-CSF 50 ng/mL for 5 min; read-out: HEK293 pCSF1R M-CSF MSD:IC50
Procedure, shortened: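 HEK293 cells expressing CSF1R-FKBP were pretreated 2 h at 37° C with 9 half-log concentrations of compound (0.5% DMSO final), then stimulated 5 min with 50 ng/mL human M-CSF. Lysates captured on biotin-FK506 plates; phosphotyrosine detected by MSD electrochemiluminescence. IC50 versus DMSO, averaged from duplicate plates.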

[3] = biological target: T2, FLT3 (Homo sapiens, UniProt P36888); assay: Competition binding assay, FLT3 Kd
T2 construct: made in house
T2 sequence (P36888 27-993): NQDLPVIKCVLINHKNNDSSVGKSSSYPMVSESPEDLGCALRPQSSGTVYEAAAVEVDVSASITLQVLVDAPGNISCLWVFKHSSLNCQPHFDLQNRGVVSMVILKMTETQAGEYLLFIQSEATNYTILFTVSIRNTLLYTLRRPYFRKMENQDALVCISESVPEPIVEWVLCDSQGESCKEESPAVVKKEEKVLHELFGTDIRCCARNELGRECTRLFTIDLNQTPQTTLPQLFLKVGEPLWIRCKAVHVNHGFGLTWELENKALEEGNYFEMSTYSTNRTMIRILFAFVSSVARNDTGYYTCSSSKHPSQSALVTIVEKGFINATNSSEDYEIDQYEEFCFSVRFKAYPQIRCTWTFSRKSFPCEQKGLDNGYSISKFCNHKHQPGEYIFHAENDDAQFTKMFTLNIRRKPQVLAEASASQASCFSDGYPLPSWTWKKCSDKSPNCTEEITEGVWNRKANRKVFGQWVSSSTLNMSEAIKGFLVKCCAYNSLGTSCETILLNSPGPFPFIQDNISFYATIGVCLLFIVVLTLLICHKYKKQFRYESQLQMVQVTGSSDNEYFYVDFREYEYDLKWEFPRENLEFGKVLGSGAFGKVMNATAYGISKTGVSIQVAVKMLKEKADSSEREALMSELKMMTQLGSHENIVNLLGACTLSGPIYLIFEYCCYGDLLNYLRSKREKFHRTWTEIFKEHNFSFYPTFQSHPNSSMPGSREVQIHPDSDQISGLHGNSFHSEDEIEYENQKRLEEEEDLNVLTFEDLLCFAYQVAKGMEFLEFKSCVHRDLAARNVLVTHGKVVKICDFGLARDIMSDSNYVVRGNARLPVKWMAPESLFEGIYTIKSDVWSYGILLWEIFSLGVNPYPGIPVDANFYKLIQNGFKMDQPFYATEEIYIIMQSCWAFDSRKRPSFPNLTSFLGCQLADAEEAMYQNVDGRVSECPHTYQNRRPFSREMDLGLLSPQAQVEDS
Procedure, shortened: as §1

[4] = biological target: T3, KIT (Homo sapiens, UniProt P10721); assay: Competition binding assay, KIT Kd
T3 construct: made in house
T3 sequence (P10721 26-976): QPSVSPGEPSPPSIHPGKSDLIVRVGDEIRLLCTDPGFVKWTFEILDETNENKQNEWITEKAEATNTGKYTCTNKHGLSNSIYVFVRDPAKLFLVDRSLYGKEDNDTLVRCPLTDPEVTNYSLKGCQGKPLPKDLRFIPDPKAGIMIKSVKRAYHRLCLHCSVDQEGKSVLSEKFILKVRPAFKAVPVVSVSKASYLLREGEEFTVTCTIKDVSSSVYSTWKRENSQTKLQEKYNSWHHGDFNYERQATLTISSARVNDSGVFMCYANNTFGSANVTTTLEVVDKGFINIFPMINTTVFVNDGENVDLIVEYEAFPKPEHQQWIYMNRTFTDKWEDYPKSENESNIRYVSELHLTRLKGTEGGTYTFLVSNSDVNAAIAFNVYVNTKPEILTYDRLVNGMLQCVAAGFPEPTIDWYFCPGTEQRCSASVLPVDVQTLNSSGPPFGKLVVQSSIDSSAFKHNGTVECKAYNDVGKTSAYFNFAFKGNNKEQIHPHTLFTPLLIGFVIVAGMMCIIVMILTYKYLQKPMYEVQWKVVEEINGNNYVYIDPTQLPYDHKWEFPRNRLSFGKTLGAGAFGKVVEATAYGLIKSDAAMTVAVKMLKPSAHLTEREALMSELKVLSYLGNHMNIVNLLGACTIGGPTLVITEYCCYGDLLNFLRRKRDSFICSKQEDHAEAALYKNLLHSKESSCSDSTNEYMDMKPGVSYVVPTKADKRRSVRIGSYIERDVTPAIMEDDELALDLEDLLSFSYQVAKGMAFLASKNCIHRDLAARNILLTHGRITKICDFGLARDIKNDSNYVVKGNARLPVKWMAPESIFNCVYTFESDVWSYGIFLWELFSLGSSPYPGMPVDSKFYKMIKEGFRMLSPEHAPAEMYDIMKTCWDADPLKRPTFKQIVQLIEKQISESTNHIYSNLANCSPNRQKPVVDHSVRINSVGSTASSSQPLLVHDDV
Procedure, shortened: as §1

[5] = biological target: T4, PDGFRβ (Homo sapiens, UniProt P09619); assay: Competition binding assay, PDGFRβ Kd
T4 construct: made in house
T4 sequence (P09619 33-1106): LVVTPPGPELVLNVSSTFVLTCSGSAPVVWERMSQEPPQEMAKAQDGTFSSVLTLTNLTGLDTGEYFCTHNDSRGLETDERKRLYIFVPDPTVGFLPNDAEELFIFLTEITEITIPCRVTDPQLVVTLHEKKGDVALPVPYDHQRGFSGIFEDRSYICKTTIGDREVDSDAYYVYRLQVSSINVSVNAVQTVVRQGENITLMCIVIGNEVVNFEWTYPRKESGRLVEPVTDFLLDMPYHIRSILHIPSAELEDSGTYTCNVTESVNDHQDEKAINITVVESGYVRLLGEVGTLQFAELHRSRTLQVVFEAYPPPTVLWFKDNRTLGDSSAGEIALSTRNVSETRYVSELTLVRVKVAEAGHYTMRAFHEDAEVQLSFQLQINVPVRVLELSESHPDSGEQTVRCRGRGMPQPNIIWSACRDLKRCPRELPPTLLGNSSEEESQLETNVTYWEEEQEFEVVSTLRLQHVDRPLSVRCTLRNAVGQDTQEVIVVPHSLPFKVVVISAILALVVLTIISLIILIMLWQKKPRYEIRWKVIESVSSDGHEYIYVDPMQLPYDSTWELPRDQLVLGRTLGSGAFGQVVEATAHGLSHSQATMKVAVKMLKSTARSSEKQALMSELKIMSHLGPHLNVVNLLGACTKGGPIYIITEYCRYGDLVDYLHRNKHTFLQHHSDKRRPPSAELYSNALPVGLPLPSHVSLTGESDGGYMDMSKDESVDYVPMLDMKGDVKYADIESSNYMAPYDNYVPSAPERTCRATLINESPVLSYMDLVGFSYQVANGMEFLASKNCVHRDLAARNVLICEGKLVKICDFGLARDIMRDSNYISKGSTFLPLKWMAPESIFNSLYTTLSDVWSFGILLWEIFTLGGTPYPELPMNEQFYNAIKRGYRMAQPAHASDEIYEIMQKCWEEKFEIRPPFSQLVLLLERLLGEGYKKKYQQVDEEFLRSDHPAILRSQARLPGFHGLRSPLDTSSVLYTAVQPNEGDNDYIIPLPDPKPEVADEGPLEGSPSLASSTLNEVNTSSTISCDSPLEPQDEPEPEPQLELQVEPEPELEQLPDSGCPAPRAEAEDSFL
Procedure, shortened: as §1

[6] = test system: M-NFS-60 cells; assay: M-NFS-60 cell proliferation assay (Alamar Blue); type: cell-based, mouse; conditions: Mus musculus; 72 hours incubation, M-CSF 20 ng/mL; read-out: CSF1R M-NFS-60 CTB:IC50
Procedure, shortened: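 Mouse M-NFS-60 cells growing on 20 ng/mL M-CSF in RPMI/10% FBS were exposed to compounds (9 half-log concentrations, 0.5% DMSO) for 72 h at 37 °C. Viability read by Alamar Blue fluorescence (ex 560/em 590 nm, 3 h). IC50 = 50% proliferation inhibition versus control, mean of duplicates.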

T1 sequence (P07333 20-972): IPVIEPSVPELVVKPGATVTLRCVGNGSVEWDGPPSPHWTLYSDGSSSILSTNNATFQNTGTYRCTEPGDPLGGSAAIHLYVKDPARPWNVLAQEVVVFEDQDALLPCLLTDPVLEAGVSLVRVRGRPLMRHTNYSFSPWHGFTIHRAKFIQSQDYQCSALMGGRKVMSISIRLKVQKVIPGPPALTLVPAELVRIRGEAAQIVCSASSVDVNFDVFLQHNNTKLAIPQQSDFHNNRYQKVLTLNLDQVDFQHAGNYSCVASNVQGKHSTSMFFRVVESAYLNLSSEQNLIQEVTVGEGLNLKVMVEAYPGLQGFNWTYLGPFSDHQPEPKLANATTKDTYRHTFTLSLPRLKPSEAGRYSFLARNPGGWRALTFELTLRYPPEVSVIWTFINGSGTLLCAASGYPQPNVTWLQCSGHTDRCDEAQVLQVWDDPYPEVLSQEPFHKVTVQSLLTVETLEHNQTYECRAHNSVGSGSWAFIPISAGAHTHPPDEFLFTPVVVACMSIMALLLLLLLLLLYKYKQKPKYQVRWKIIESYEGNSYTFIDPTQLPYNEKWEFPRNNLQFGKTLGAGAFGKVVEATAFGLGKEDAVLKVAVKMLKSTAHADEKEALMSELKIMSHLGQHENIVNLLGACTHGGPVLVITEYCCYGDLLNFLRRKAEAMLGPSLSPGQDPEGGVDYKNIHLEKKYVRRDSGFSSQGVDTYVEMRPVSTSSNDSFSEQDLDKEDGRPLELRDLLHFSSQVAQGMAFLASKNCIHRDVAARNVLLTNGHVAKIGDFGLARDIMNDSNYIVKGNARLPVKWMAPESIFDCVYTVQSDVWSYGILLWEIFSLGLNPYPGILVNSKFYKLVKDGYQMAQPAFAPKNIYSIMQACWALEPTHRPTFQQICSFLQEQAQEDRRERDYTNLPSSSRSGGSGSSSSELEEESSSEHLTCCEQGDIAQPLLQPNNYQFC

Structure (SMILES): COc1ccc2ncn(Cc3ccc4nc(N[C@@H]5CCCC[C@H]5O)sc4c3)c2c1 [Example 67, (1R,2R)-2-((6-((6-methoxy-1H-benzo[d]imidazol-1-yl)methyl)benzo[d]thiazol-2-yl)amino)cyclohexanol]
- Kd [1]: 0.005 to 0.02 µM
- IC50 [2]: 0.05 to 0.2 µM
- Kd [3]: 1 to 5 µM
- Kd [4]: ≤ 0.1 µM
- Kd [5]: 0.05 to 0.5 µM
- IC50 [6]: 0.05 to 0.4 µM

Structure (SMILES): COc1ccc2c(c1)ncn2Cc1ccc2nc(N[C@@H]3CCCC[C@H]3O)sc2c1 [Example 68, (1R,2R)-2-((6-((5-methoxy-1H-benzo[d]imidazol-1-yl)methyl)benzo[d]thiazol-2-yl)amino)cyclohexanol]
- Kd [1]: 0.005 to 0.02 µM
- IC50 [2]: ≤ 0.05 µM
- Kd [3]: 1 to 5 µM
- Kd [4]: 0.1 to 0.5 µM
- Kd [5]: 0.05 to 0.5 µM
- IC50 [6]: ≤ 0.05 µM

Structure (SMILES): O[C@@H]1Cc2ccccc2[C@H]1Nc1nc2ccc(Cn3cnc4cc(F)cnc43)cc2s1 [Example 69, (1R,2R)-1-((6-((6-fluoro-3H-imidazo[4,5-b]pyridin-3-yl)methyl)benzo[d]thiazol-2-yl)amino)-2,3-dihydro-1H-inden-2-ol]
- Kd [1]: ≤ 0.005 µM
- IC50 [2]: 0.05 to 0.2 µM
- Kd [3]: 1 to 5 µM
- Kd [4]: 0.1 to 0.5 µM
- Kd [5]: ≤ 0.05 µM
- IC50 [6]: 0.05 to 0.4 µM

Structure (SMILES): O[C@@H]1CCCC[C@H]1Nc1nc2ccc(Cn3cnc4cc(F)cnc43)cc2s1 [Example 70, (1R,2R)-2-((6-((6-fluoro-3H-imidazo[4,5-b]pyridin-3-yl)methyl)benzo[d]thiazol-2-yl)amino)cyclohexanol]
- Kd [1]: ≤ 0.005 µM
- IC50 [2]: ≤ 0.05 µM
- Kd [3]: 1 to 5 µM
- Kd [4]: ≤ 0.1 µM
- Kd [5]: 0.05 to 0.5 µM
- IC50 [6]: 0.05 to 0.4 µM

Structure (SMILES): O[C@@H]1CCCC[C@H]1Nc1nc2ccc(Cn3cnc4ccncc43)cc2s1 [Example 71, (1R,2R)-2-((6-((3H-imidazo[4,5-c]pyridin-3-yl)methyl)benzo[d]thiazol-2-yl)amino)cyclohexanol]
- Kd [1]: 0.005 to 0.02 µM
- IC50 [2]: 0.2 to 0.5 µM
- Kd [3]: > 5 µM
- Kd [4]: > 2 µM
- Kd [5]: 0.5 to 2 µM
- IC50 [6]: 0.4 to 1.5 µM

Structure (SMILES): O[C@@H]1CCCC[C@H]1Nc1nc2ccc(Cn3cnc4cnccc43)cc2s1 [Example 72, (1R,2R)-2-((6-((1H-imidazo[4,5-c]pyridin-1-yl)methyl)benzo[d]thiazol-2-yl)amino)cyclohexanol]
- Kd [1]: 0.005 to 0.02 µM
- IC50 [2]: 0.05 to 0.2 µM
- Kd [3]: > 5 µM
- Kd [4]: > 2 µM
- Kd [5]: 0.5 to 2 µM
- IC50 [6]: 0.4 to 1.5 µM

Structure (SMILES): O[C@@H]1CCCC[C@H]1Nc1nc2ccc(Cn3cnc4ccc(Br)nc43)cc2s1 [Example 78, (1R,2R)-2-((6-((5-bromo-3H-imidazo[4,5-b]pyridin-3-yl)methyl)benzo[d]thiazol-2-yl)amino)cyclohexanol]
- Kd [1]: 0.005 to 0.02 µM
- IC50 [2]: ≤ 0.05 µM
- Kd [3]: ≤ 0.2 µM
- Kd [4]: ≤ 0.1 µM
- Kd [5]: ≤ 0.05 µM
- IC50 [6]: ≤ 0.05 µM

Structure (SMILES): COC(=O)c1cnc2c(c1)ncn2Cc1ccc2nc(N[C@@H]3CCCC[C@H]3O)sc2c1 [Example 79, methyl 3-((2-(((1R,2R)-2-hydroxycyclohexyl)amino)benzo[d]thiazol-6-yl)methyl)-3H-imidazo[4,5-b]pyridine-6-carboxylate]
- Kd [1]: 0.005 to 0.02 µM
- IC50 [2]: ≤ 0.05 µM
- Kd [3]: 0.2 to 1 µM
- Kd [4]: ≤ 0.1 µM
- Kd [5]: ≤ 0.05 µM
- IC50 [6]: ≤ 0.05 µM

Structure (SMILES): CC(=O)c1ccc2ncn(Cc3ccc4nc(N[C@@H]5CCCC[C@H]5O)sc4c3)c2n1 [Example 88, 1-(3-((2-(((1R,2R)-2-hydroxycyclohexyl)amino)benzo[d]thiazol-6-yl)methyl)-3H-imidazo[4,5-b]pyridin-5-yl)ethanone]
- Kd [1]: ≤ 0.005 µM
- IC50 [2]: 0.05 to 0.2 µM
- Kd [3]: 0.2 to 1 µM
- Kd [4]: ≤ 0.1 µM
- Kd [5]: 0.05 to 0.5 µM
- IC50 [6]: ≤ 0.05 µM

Structure (SMILES): CNC(=O)c1cnc2c(c1)ncn2Cc1ccc2nc(N[C@@H]3CCCC[C@H]3O)sc2c1 [Example 89, 3-((2-(((1R,2R)-2-hydroxycyclohexyl)amino)benzo[d]thiazol-6-yl)methyl)-N-methyl-3H-imidazo[4,5-b]pyridine-6-carboxamide]
- Kd [1]: 0.005 to 0.02 µM
- IC50 [2]: 0.05 to 0.2 µM
- Kd [3]: 1 to 5 µM
- Kd [4]: ≤ 0.1 µM
- Kd [5]: ≤ 0.05 µM
- IC50 [6]: 0.05 to 0.4 µM

Structure (SMILES): N=C(NO)c1cnc2c(c1)ncn2Cc1ccc2nc(N[C@@H]3CCCC[C@H]3O)sc2c1 [Example 90, N-hydroxy-3-((2-(((1R,2R)-2-hydroxycyclohexyl)amino)benzo[d]thiazol-6-yl)methyl)-3H-imidazo[4,5-b]pyridine-6-carboximidamide]
- Kd [1]: 0.005 to 0.02 µM
- IC50 [2]: 0.05 to 0.2 µM
- Kd [3]: 1 to 5 µM
- Kd [4]: 0.1 to 0.5 µM
- Kd [5]: 0.05 to 0.5 µM
- IC50 [6]: 0.05 to 0.4 µM

Structure (SMILES): NCc1cnc2c(c1)ncn2Cc1ccc2nc(N[C@@H]3CCCC[C@H]3O)sc2c1 [Example 91, (1R,2R)-2-((6-((6-(aminomethyl)-3H-imidazo[4,5-b]pyridin-3-yl)methyl)benzo[d]thiazol-2-yl)amino)cyclohexanol acetate]
- Kd [1]: > 0.05 µM
- IC50 [2]: > 0.5 µM
- Kd [3]: ≤ 0.2 µM
- Kd [4]: 0.1 to 0.5 µM
- Kd [5]: 0.05 to 0.5 µM
- IC50 [6]: 0.05 to 0.4 µM

Structure (SMILES): CN(C)C(=O)c1cnc2c(c1)ncn2Cc1ccc2nc(N[C@@H]3CCCC[C@H]3O)sc2c1 [Example 92, 3-((2-(((1R,2R)-2-hydroxycyclohexyl)amino)benzo[d]thiazol-6-yl)methyl)-N,N-dimethyl-3H-imidazo[4,5-b]pyridine-6-carboxamide]
- Kd [1]: 0.005 to 0.02 µM
- IC50 [2]: 0.05 to 0.2 µM
- Kd [3]: 1 to 5 µM
- Kd [4]: ≤ 0.1 µM
- Kd [5]: ≤ 0.05 µM
- IC50 [6]: 0.05 to 0.4 µM

Structure (SMILES): O[C@@H]1CCCC[C@H]1Nc1nc2ccc(Cn3cnc4cc(-c5nn[nH]n5)cnc43)cc2s1 [Example 93, (1R,2R)-2-((6-((6-(2H-tetrazol-5-yl)-3H-imidazo[4,5-b]pyridin-3-yl)methyl)benzo[d]thiazol-2-yl)amino)cyclohexanol]
- Kd [1]: 0.005 to 0.02 µM
- IC50 [2]: > 0.5 µM
- Kd [3]: 0.2 to 1 µM
- Kd [4]: ≤ 0.1 µM
- Kd [5]: ≤ 0.05 µM
- IC50 [6]: > 1.5 µM

Structure (SMILES): Cn1nnc(-c2cnc3c(c2)ncn3Cc2ccc3nc(N[C@@H]4CCCC[C@H]4O)sc3c2)n1 [Example 94, (1R,2R)-2-((6-((6-(2-methyl-2H-tetrazol-5-yl)-3H-imidazo[4,5-b]pyridin-3-yl)methyl)benzo[d]thiazol-2-yl)amino)cyclohexanol]
- Kd [1]: 0.005 to 0.02 µM
- IC50 [2]: ≤ 0.05 µM
- Kd [3]: 0.2 to 1 µM
- Kd [4]: 0.1 to 0.5 µM
- Kd [5]: 0.05 to 0.5 µM
- IC50 [6]: ≤ 0.05 µM

Structure (SMILES): O[C@@H]1Cc2ccccc2[C@H]1Nc1nc2ccc(Cn3cnc4cncnc43)cc2s1 [Example 95, (1R,2R)-1-((6-((9H-purin-9-yl)methyl)benzo[d]thiazol-2-yl)amino)-2,3-dihydro-1H-inden-2-ol]
- Kd [1]: ≤ 0.005 µM
- IC50 [2]: 0.05 to 0.2 µM
- Kd [3]: > 5 µM
- Kd [4]: 0.5 to 2 µM
- Kd [5]: ≤ 0.05 µM
- IC50 [6]: 0.05 to 0.4 µM

Structure (SMILES): Cn1cc(-c2nccn(Cc3ccc4nc(N[C@@H]5CCCC[C@H]5O)sc4c3)c2=O)cn1 [Example 103, 1-((2-(((1R,2R)-2-hydroxycyclohexyl)amino)benzo[d]thiazol-6-yl)methyl)-3-(1-methyl-1H-pyrazol-4-yl)pyrazin-2(1H)-one]
- Kd [1]: 0.005 to 0.02 µM
- IC50 [2]: 0.05 to 0.2 µM
- Kd [3]: > 5 µM
- Kd [4]: > 2 µM
- Kd [5]: 0.05 to 0.5 µM
- IC50 [6]: 0.05 to 0.4 µM
